Assays:
riboswitch 15D10 [1] = assay: Luci-15D10 luciferase reporter in Hep G2 cells; assay type: cell-based, human; conditions: potency compared at 12.5 μM, FIG. 9F
riboswitch 15D10 [2] = assay: Luciferase reporter with 15D10 riboswitch (Luci-15D10) in AML12 cells; assay type: cell-based, mouse; conditions: AML12 cells; FIG. 6B
[3] = test system: riboswitch comprising aptamer 15A5; assay: Luciferase reporter with 15A5 riboswitch in AML12 cells; assay type: cell-based, mouse; conditions: FIG. 6B
riboswitch 15D10 [4] = assay: Luciferase reporter with 15D10 riboswitch (Luci-15D10) in HEK 293 cells; assay type: cell-based, human; conditions: HEK 293 cells; FIG. 9A, 9C
Method in brief: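 Cells transfected with riboswitch-luciferase plasmid; 4 h later medium replaced with TPP or thiamine analogs (fursultiamine, prosultiamine, bisbentiamine, beclotiamine, sulbutiamine) as inducers.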

riboswitch 15D10 [5] = assay: Luci-15D10 luciferase reporter in ARPE-19 cells; assay type: cell-based, human; conditions: FIG. 9E

SMILES | activity in increasing riboswitch 15D10-regulated luciferase expression (riboswitch 15D10 [1]) | luciferase regulation in response to ligand, riboswitch 15D10 (riboswitch 15D10 [2]) | luciferase regulation in response to ligand, riboswitch 15A5 [3] | effect on luciferase expression from Luci-15D10 (riboswitch 15D10 [4]) | activity in increasing riboswitch 15D10-regulated luciferase expression (riboswitch 15D10 [5])
C/C(=C(\CCOP(=O)(O)O)SC(=O)c1ccccc1)N(C=O)Cc1cnc(C)nc1N [benfotiamine, reference compound] | no activity | robustly regulate luciferase expression | robustly regulate luciferase expression | no effect on luciferase expression | no activity
COc1ccc(C(=O)S/C(CCOP(=O)(O)O)=C(/C)N(C=O)Cc2cnc(C)nc2N)cc1 [Compound M32, (Z)—S-(2-(N-((4-Amino-2-methylpyrimidin-5-yl)methyl)formamido)-5-(phosphonooxy)pent-2-en-3-yl) 4-methoxybenzothioate] | no activity |  |  | no effect on luciferase expression | no activity

Source: patent US12570988B2, “Aptamers that bind thiamine analogs and derivatives” (MeiraGTx Gene Regulation Limited, priority 2020, dated 2026)
